Experimental data published in EP4803525A1 (Hefei Institute of Pharmaceutical Industry Co., Ltd., priority 2023, dated 2025).

Experiments:
[1] = test system: bleomycin-induced pulmonary fibrosis in rats; assay: Bleomycin-induced pulmonary fibrosis in rats; details: mean ± SD, n=10; for Percentage of lung collagen fibers (%): Masson's staining; for IL-6 / TGF-β: bronchoalveolar lavage fluid, ELISA
Experimental: 50 SD rats were randomly divided into 5 groups according to their body weight, with 10 rats in each group and half male and half female.
After anesthetizing rats with chloral hydrate, bleomycin solution was injected into the trachea through the vocal cords at a dose of 5 mg/kg and a volume of 1 ml/kg; rats in the blank control group were injected with an equal volume of physiological saline into the trachea. […] Blood and lungs were collected from each group of animals on day 22. After euthanizing the rats, the trachea was exposed, and an intravenous cannula was inserted into the rat's bronchus. The trachea was lavaged twice with PBS (5 ml), and the lavage fluid was collected. Then, centrifugation was performed at 1500 r/min for 10 min. The supernatant was collected.

[2] = test system: mouse eosinophilic asthma model; assay: Eosinophilic asthma induced by house dust mite extract in mice; details: eosinophilic asthmatic mice, n=10; for IL-4 / IgE: bronchoalveolar lavage fluid, Mean ± SD; for Eosinophils (%): lung lavage fluid; for Eosinophils (%) / Number of sneezes (20 minutes): mean ± SD; for Number of sneezes (20 minutes): within 20 minutes after the last administration
Experimental: The number of eosinophils in the lung lavage fluid of mice and the number of sneezes in mice within 20 minutes after the last administration were counted.

[3] = test system: rat model of chronic obstructive pulmonary disease (COPD); assay: Chronic obstructive pulmonary disease in rats (fumigation and intratracheal LPS); details: n=8; for 14-day FEV 1/FVC (%): day 14 of treatment; for 14-day FEV 1/FVC (%) / 28-day FEV 1/FVC (%): Mean ± SD; for 28-day FEV 1/FVC (%): last administration (28 days); for Pathological score: lung tissue, HE staining; for Pathological score / IL-1β / TNF-α: mean ± SD; for IL-1β / TNF-α: serum, ELISA
Experimental: Subsequently, the SD rats were randomly divided into 5 groups according to their body weight, with 8 rats in each group and half male and half female.
Except for the blank control group, SD rats were used to establish a rat model of chronic obstructive pulmonary disease (COPD) by fumigation and intratracheal instillation of LPS. On days 1, 14, 28 and 42 of modeling, the rats were anesthetized with chloral hydrate and then 125 µL of LPS (2 mg/mL) solution was instilled into the trachea. For the rest of the time, the animals were placed in a self-made fumigation box and each group of rats was continuously fumigated with 10 lit cigarettes for 1.5 hours (once in the morning and once in the afternoon) for 50 consecutive days. After the model was established, the rats in each group were given the drug twice a day for 28 consecutive days.
The rat lung function test instrument was used to measure FVC and FEV1 on day 14 of treatment and at the last administration, and the FEV1/FVC ratio was calculated.
Blood samples were collected after the last administration of the drug to measure inflammatory markers. Levels of IL-1β and TNF-α in serum were measured according to the ELISA instructions.
After the last treatment, all three lobes of the right lung of the rats were removed, fixed and dehydrated in 10% formaldehyde, embedded in paraffin, sectioned, and stained with hematoxylin and eosin (HE). The morphological changes of the lung tissue of the rats in each group were observed.

hERG potassium channel = target: T1, hERG potassium channel (Homo sapiens, UniProt Q12809); assay: hERG whole-cell patch-clamp test in HEK-293 cells; assay type: cell-based; details: HEK-293 cells stably expressing hERG, whole-cell patch clamp, 0.03-30 µM, read-out: h ERG IC50
T1 construct: host or cells: HEK-293
T1 sequence (Q12809 whole entry): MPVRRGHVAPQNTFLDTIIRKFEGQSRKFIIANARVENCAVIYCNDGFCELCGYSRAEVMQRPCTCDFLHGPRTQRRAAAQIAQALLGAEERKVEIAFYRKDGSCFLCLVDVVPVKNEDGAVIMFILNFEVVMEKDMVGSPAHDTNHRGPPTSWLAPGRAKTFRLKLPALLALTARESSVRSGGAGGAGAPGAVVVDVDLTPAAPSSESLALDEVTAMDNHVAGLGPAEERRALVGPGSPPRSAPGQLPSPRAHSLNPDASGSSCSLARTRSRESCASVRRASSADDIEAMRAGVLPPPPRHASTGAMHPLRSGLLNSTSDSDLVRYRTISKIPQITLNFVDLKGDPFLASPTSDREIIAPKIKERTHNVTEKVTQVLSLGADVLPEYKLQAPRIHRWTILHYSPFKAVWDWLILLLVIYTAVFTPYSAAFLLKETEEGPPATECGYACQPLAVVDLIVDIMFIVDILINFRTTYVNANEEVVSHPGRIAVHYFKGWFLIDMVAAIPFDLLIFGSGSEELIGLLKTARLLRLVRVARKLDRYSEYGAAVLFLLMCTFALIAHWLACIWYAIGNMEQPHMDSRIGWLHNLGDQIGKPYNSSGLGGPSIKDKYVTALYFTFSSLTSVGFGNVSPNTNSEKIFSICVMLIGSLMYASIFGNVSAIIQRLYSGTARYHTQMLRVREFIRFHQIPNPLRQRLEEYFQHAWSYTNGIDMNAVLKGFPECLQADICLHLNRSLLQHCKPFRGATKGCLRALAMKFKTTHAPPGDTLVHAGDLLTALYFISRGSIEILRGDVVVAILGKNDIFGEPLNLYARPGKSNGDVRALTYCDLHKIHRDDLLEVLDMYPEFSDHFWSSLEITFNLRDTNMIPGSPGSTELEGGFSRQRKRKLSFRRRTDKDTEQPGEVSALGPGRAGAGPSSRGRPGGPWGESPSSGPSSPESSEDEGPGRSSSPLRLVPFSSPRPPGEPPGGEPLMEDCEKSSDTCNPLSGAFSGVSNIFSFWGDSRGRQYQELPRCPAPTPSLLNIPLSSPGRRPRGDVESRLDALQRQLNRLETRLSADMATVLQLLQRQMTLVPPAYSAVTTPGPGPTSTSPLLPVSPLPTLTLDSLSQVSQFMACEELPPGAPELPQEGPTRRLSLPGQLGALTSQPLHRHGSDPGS
Experimental: HEK-293 cell line stably expressing hERG potassium channels (purchased from Creacell, catalog number: A-0320) was used. HEK293 cell lines were cultured in DMEM medium containing 10% fetal bovine serum and 0.8 mg/mL G418 at a temperature of 37°C and a carbon dioxide concentration of 5%. For patch-clamp assays, cells were separated using TrypLE™ Express before the assay. 4 × 10^3 cells were seeded onto coverslips and cultured in 24-well plates (final volume: 500 µL). The assays were performed 18 hours later.
Whole-cell patch-clamp test: after whole-cell sealing is achieved, the cell membrane voltage is clamped to -80mV. […] Data was collected every 10 seconds to observe the effect of the drug on hERG tail current. A -50 mV stimulus of 0.5 s was used as the leakage current detection. Experimental data were collected by the EPC-10 amplifier and stored in the software. Once the hERG current recorded in whole cells stabilized, drug administration began. Each drug concentration was administered for 5 minutes (or the current stabilized) before the next concentration was measured.

PDE4C1 = target: T2, PDE4C1 (Homo sapiens, UniProt Q08493); assay: Selectivity for PDE4 enzyme isotypes, same detection method as PDE4B; assay type: biochemical
T2 construct: purchased BPS bioscience
T2 sequence (Q08493 whole entry): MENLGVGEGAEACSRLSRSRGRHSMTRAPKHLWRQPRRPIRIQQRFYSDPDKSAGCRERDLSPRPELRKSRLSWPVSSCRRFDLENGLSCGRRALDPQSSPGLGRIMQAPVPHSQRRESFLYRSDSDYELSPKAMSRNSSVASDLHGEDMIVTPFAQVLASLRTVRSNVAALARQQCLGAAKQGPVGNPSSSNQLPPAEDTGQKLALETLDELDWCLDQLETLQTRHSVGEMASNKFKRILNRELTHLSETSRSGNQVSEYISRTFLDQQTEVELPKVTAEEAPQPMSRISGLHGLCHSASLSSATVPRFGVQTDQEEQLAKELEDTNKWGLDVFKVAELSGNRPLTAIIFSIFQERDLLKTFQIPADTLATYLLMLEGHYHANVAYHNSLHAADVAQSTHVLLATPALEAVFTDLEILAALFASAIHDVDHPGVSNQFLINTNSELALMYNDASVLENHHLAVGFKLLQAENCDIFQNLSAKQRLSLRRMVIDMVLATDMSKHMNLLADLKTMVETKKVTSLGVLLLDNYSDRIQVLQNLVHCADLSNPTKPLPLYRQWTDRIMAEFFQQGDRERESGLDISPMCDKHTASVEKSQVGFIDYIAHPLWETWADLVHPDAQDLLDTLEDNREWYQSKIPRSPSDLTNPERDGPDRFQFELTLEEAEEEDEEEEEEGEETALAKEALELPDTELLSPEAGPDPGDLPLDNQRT
Experimental: (§1) 2.1 Compound preparation and treatment: all compounds were prepared into 50 mM stock solutions using dimethyl sulfoxide.
(§2) 2.2 Preparation of working stock solution: a) the reference rolipram was serially diluted 3 times with dimethyl sulfoxide starting from 2 mmol, to a total of 10 concentrations. b) 2 mmol of the compound of the present invention was serially diluted three times with dimethyl sulfoxide (DMSO) to a total of 10 concentrations. c) A 200X positive control (2 mM rolipram) and a 200X vector control (100% dimethyl sulfoxide) were prepared. d) The compound plate was centrifuged at 1000 rpm for 1 minute.
(§3) • a) An Echo 550 was used to transfer 20 nL of compound dilution to each well of the detection plate. • b) The test plate was sealed and centrifuged at 1000 rpm for 1 minute. • c) 2X PDE4B2 was prepared in frozen PDE detection buffer. • d) 2 µL of 2X PDE4B2 was added to each well of the detection plate (prepared in step b). • e) The test plate was sealed and incubated for 10 minutes under RT conditions. • f) 2X Cyclic-3',5'-AMP was prepared in PDE detection buffer. • g) 2 µl of 2X Cyclic-3',5'-AMP (prepared in step f) was added to each well of the detection plate (prepared in step e) to initiate the reaction. Incubation was performed at room temperature for 60 minutes. • h) 4 µL of AMP-Glo reagent I was added. • i) 8 µL of AMP detection solution was added. Incubation was performed at room temperature for 60 minutes. • k) The RLU signal was read on the Envision 2105 reader.
(§4) Same detection method as PDE4B

PDE4B2A = target: T3, PDE4B2A (Homo sapiens, UniProt Q07343); assay: as above; assay type: biochemical
T3 construct: purchased BPS bioscience
T3 sequence (Q07343 1-564 isoform Q07343-2): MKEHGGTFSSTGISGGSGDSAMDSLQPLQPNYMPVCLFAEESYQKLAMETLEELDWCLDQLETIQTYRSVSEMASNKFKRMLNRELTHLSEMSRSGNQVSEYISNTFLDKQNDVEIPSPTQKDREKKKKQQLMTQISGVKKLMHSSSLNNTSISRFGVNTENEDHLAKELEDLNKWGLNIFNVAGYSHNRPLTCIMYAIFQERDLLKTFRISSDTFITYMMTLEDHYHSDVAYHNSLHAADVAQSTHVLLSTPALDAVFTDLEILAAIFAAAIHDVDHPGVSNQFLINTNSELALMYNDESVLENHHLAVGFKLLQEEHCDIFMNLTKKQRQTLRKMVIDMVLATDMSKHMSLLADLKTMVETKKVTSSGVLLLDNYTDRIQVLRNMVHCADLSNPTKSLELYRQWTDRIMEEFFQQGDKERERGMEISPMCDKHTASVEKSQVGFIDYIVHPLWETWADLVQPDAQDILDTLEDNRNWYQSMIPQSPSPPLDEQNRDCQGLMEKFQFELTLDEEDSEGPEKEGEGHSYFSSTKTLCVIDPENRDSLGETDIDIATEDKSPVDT
Experimental: as §1, §2, §3, §4

PDE4D3 = target: T4, PDE4D3 (Homo sapiens, UniProt Q08499); assay: as above; assay type: biochemical
T4 construct: purchased BPS bioscience
T4 sequence (Q08499 1-673 isoform Q08499-2): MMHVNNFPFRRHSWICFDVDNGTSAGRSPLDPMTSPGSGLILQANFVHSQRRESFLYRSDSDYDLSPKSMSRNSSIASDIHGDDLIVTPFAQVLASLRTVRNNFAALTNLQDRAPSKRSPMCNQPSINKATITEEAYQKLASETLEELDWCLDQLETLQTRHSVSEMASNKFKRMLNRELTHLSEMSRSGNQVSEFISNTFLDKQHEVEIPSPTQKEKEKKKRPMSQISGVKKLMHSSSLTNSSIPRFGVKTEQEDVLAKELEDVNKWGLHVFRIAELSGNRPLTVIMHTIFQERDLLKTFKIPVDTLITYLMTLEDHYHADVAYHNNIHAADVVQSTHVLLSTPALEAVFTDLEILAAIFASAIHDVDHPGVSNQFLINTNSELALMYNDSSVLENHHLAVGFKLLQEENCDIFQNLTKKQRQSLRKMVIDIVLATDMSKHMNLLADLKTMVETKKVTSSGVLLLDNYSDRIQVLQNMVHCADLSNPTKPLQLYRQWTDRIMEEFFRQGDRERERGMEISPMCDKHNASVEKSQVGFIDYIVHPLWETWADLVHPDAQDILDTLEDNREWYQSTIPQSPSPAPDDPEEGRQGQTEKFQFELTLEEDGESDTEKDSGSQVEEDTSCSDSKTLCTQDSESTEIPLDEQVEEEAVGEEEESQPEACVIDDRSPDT
Experimental: as §1, §2, §3, §4

PDE4A1A = target: T5, PDE4A1A (Homo sapiens, UniProt P27815); assay: as above; assay type: biochemical
T5 construct: purchased BPS bioscience
T5 sequence (P27815 1-647 isoform P27815-4): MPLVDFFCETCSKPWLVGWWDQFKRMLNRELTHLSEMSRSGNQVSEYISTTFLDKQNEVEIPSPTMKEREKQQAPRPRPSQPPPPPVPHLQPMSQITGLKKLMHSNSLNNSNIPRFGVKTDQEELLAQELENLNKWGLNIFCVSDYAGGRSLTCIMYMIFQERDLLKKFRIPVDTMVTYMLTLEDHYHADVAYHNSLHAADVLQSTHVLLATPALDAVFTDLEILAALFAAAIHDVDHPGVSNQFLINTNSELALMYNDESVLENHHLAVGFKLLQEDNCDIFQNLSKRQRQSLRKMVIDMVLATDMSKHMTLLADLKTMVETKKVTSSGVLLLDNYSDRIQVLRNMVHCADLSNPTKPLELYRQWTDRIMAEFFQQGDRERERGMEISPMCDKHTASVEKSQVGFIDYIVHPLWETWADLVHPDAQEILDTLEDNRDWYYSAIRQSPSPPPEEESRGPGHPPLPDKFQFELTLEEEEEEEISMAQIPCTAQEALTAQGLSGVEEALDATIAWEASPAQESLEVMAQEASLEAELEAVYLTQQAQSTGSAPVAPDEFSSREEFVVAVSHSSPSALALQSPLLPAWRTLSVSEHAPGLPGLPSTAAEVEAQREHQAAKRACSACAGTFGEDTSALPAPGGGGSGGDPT
Experimental: as §1, §2, §3, §4

PDE4D2 = target: T6, PDE4D2 (Homo sapiens, UniProt Q08499); assay: as above; assay type: biochemical
T6 construct: purchased BPS bioscience
T6 sequence (Q08499 303-809): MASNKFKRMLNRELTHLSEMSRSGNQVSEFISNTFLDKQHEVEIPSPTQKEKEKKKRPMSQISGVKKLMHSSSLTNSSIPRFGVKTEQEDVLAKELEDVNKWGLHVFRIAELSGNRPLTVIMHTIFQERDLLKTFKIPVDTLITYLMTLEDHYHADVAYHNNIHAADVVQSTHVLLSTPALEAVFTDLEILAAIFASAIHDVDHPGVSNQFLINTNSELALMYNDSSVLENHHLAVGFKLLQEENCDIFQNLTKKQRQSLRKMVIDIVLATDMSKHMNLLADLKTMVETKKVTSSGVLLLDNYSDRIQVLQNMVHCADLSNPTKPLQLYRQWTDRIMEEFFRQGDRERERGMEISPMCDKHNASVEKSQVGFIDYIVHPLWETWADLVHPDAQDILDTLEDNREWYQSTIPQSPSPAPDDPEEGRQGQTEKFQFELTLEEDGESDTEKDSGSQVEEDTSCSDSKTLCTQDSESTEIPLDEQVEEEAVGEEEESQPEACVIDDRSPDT
Experimental: as §1, §2, §3, §4

[4] = 5 mg/kg intragastric twice daily for 14 days
[5] = 10 mg/kg intragastric twice daily for 14 days
[6] = 20 mg/kg intragastric twice daily for 14 days
[7] = 5 mg/kg twice daily for 14 days
[8] = 10 mg/kg twice daily for 14 days
[9] = 20 mg/kg twice daily for 14 days
[10] = 5 mg/kg twice a day for 28 days
[11] = 10 mg/kg twice a day for 28 days
[12] = 20 mg/kg twice a day for 28 days

## O=C(O)Cc1ccc(Nc2nc(N3CCC(c4ncc(Cl)cn4)CC3)nc3c2S(=O)(=O)CCC3)cc1F [Example 11, 2-(4-((2-(4-(5-chloropyrimidin-2-yl)piperidin-1-yl)-5,5-dioxo-7,8-dihydro-6H -thiapyrano[3,2-d]pyrimidin-4-yl)amino)-2-fluorophenyl)acetic acid]
[1]; [4]
  Percentage of lung collagen fibers (%): 16.1±4.6 %
  IL-6: 34.8 ± 3.7 pg/mL
  TGF-β: 79.0 ± 6.4 pg/mL
[1]; [5]
  Percentage of lung collagen fibers (%): 9.7±2.2 %
  IL-6: 32.5 ± 6.1 pg/mL
  TGF-β: 69.1 ± 6.3 pg/mL
[1]; [6]
  Percentage of lung collagen fibers (%): 8.5±2.5 %
  IL-6: 28.3 ± 3.9 pg/mL
  TGF-β: 56.3 ± 5.2 pg/mL
[2]; [7]
  IL-4: 70.92 ± 10.87 pg/mL
  IgE: 266.55 ± 52.03 pg/mL
  Eosinophils (%): 21.97±2.58 %
  Number of sneezes (20 minutes): 17.9±3.4
[2]; [8]
  IL-4: 59.38 ± 9.90 pg/mL
  IgE: 219.05 ± 38.74 pg/mL
  Eosinophils (%): 17.93±3.30 %
  Number of sneezes (20 minutes): 16.3±3.7
[2]; [9]
  IL-4: 51.13 ± 16.07 pg/mL
  IgE: 189.36 ± 56.69 pg/mL
  Eosinophils (%): 16.04±2.97 %
  Number of sneezes (20 minutes): 13.8±1.9
[3]; 5 mg/kg twice a day
  14-day FEV 1/FVC (%): 66.65±5.48 %
  28-day FEV 1/FVC (%): 69.99±2.65 %
[3]; 10 mg/kg twice a day
  14-day FEV 1/FVC (%): 72.14±6.56 %
  28-day FEV 1/FVC (%): 75.30±1.84 %
[3]; 20 mg/kg twice a day
  14-day FEV 1/FVC (%): 76.78±5.41 %
  28-day FEV 1/FVC (%): 77.10±1.81 %
[3]; [10]
  Pathological score: 3.83 ± 0.75
  IL-1β: 71.13 ± 16.14 pg/mL
  TNF-α: 118.36 ± 27.30 pg/mL
[3]; [11]
  Pathological score: 2.00±0.63
  IL-1β: 51.92 ± 16.06 pg/mL
  TNF-α: 90.15 ± 15.79 pg/mL
[3]; [12]
  Pathological score: 1.83±0.41
  IL-1β: 50.75 ± 15.07 pg/mL
  TNF-α: 73.23 ± 11.78 pg/mL
hERG potassium channel
  IC50: > 30000 nM

## [O-][S+]1CCc2nc(N3CCC(c4ncc(Cl)cn4)CC3)nc(NC3(CO)CCC3)c21 (stereo not drawn) [WO2013026797 (Compound II)]
PDE4C1
  IC50: 2190 nM
PDE4C1; PDE4C1 vs PDE4B2A
  Selectivity over PDE4B: 89
PDE4B2A
  IC50: 24.5 nM
PDE4B2A; PDE4B2A vs PDE4B2A
  Selectivity over PDE4B: 1
PDE4D3
  IC50: 65.8 nM
PDE4D3; PDE4D3 vs PDE4B2A
  Selectivity over PDE4B: 2.7
PDE4A1A
  IC50: 112 nM
PDE4A1A; PDE4A1A vs PDE4B2A
  Selectivity over PDE4B: 4.5
PDE4D2
  IC50: 37.1 nM
PDE4D2; PDE4D2 vs PDE4B2A
  Selectivity over PDE4B: 1.5
hERG potassium channel; human, HEK-293 cells stably expressing hERG potassium channels
  IC50 at 5 min: > 3280 nM
